What all share (test): growth of human tumour cells (NCI), 48 h
In experiment [1] the test system is MOLT-4 leukemia.
The test system of experiment [2] is OVCAR-3 ovarian.
For experiment [3], the system named is EKVX NSCLC.
The subject of experiment [4] is MALME-3M melanoma.
Experiment [5] concerns SK-OV-3 ovarian.
For experiment [6], the system named is SR leukemia.
Experiment [7] relates to KM12 colon.
Experiment [8] deals with BT-549 breast.
The subject of experiment [9] is LOX IMVI melanoma.
Experiment [10] has as its system M14 melanoma.

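Following 48 hours of exposure in 96-well plates, responses at five concentrations were used to interpolate endpoints linearly. GI50: concentration for 50% inhibition of growth. TGI is the concentration that stops growth completely.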

On to `COc1cc2nc(-c3cnc(N(C)C)nc3)nc(NC3CCN(Cc4ccccc4)CC3)c2cc1OC`, for which the GI50 in [1] is 2280 nM; in experiment [2], 1690 nM; in [3], 1.75 µM; in experiment [4] it was 1660 nM; in experiment [5], 1700 nM; in experiment [6], 273 nM. Besides, the GI50 is 1720 nM in experiment [7], 1710 nM in experiment [8], 1520 nM in [9] and 1500 nM in experiment [10]. Also, the TGI was found to be 6.36 µM in experiment [1]; 3.27 µM in experiment [2]; 3.66 µM in experiment [3]; 3.42 µM in experiment [4]; 3.08 µM in experiment [5]; 0.938 µM in experiment [6]. Moreover, the TGI in experiment [7] was determined as 3.53 µM; in experiment [8] it was 3.43 µM; in [9], 3.2 µM; in experiment [10] it was 3.06 µM.
`COc1cccc(C2c3cc4c(cc3OC(C)(O)C2C)OCO4)c1O` (stereo not given): the TGI in experiment [1] is > 66.2 µM; in experiment [2], 8.48 µM; in experiment [3] it was > 100 µM; in experiment [4] it was 56.3 µM; in [5], 42.8 µM; in experiment [6] it was > 42.1 µM. In addition, the TGI in [7] worked out at 36.6 µM; in experiment [8], 52.8 µM; in experiment [9] it was 50.4 µM; in experiment [10], 24.2 µM.
With `Cc1nc(Cl)nc(Cl)c1C`, the TGI in [1], in experiment [2], in [3], in [4], in experiment [5] and in [6] was > 100 µM in each case. In addition, the TGI in [7], in experiment [8], in experiment [9] and in [10] was > 100 µM throughout.
Turning to `C1=Cc2ccccc2Nc2ccccc21`, the GI50 in experiment [1] is > 100000 nM; in [2] it was > 100000 nM; in experiment [3], 50 µM; in experiment [4] it was > 100000 nM; in [5], > 100000 nM; in [6] it was > 100000 nM. The GI50 in experiment [7], in [8], in experiment [9] and in experiment [10] was > 100000 nM in each case. For the same molecule, the TGI in experiment [1], in experiment [2], in experiment [3], in [4], in experiment [5] and in experiment [6] was > 100 µM each time. The TGI in experiment [7], in experiment [8], in experiment [9] and in experiment [10] was > 100 µM each time.

Values taken from PubChem BioAssay (NCI).
